Where a SMILES comes first, the peptide text is derived from it. Bridges are numbered along the chain shown (N, C = ends).
Experiments:
Assay in all cases: cell-based
rat α3β2 nAChR = rat α3β2 nAChR (Rattus norvegicus, UniProt P04757+P12390)
rat α7 nAChR = rat α7 nAChR (Rattus norvegicus, UniProt Q05941); assay type: cell-based
rat α4β4 nAChR = rat α4β4 nAChR (Rattus norvegicus, UniProt P09483+P12392); assay type: cell-based
rat α4β2 nAChR = rat α4β2 nAChR (Rattus norvegicus, UniProt P09483+P12390); assay type: cell-based
Sequence of rat α4β2 nAChR (P09483 31-630 limits assumed): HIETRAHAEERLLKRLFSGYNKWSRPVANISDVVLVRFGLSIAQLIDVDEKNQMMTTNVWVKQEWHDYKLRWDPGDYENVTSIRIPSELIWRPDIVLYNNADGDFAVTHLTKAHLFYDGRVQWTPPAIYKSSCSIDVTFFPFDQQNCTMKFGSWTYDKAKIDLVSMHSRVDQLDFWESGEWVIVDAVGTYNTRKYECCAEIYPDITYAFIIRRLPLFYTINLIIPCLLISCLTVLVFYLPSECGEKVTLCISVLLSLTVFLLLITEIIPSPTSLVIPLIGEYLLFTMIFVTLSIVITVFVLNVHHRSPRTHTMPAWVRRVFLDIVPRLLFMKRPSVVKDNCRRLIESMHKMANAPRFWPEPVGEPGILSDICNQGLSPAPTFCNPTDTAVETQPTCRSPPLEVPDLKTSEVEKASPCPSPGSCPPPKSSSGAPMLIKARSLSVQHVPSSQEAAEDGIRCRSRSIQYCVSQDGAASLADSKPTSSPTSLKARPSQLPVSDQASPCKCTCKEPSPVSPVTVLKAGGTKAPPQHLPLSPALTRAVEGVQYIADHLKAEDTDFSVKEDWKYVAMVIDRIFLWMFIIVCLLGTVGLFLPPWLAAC
Sequence of rat α4β2 nAChR (P12390 25-500 limits assumed): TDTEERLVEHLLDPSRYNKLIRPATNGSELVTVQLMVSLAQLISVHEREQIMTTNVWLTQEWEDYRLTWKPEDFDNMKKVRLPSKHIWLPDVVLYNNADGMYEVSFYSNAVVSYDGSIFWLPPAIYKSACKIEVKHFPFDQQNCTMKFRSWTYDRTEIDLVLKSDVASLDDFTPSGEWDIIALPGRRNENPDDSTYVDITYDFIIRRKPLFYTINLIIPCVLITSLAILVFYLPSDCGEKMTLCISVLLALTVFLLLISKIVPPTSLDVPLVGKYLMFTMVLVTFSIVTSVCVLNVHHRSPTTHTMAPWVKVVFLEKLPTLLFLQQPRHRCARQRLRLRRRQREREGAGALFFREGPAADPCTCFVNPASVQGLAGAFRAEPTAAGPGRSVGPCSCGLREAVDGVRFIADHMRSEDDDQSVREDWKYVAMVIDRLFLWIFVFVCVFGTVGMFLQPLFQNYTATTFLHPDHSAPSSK

rat α2β2 nAChR = rat α2β2 nAChR (Rattus norvegicus, UniProt P12389+P12390); assay type: cell-based
Sequence of rat α2β2 nAChR (P12389 28-511 limits assumed): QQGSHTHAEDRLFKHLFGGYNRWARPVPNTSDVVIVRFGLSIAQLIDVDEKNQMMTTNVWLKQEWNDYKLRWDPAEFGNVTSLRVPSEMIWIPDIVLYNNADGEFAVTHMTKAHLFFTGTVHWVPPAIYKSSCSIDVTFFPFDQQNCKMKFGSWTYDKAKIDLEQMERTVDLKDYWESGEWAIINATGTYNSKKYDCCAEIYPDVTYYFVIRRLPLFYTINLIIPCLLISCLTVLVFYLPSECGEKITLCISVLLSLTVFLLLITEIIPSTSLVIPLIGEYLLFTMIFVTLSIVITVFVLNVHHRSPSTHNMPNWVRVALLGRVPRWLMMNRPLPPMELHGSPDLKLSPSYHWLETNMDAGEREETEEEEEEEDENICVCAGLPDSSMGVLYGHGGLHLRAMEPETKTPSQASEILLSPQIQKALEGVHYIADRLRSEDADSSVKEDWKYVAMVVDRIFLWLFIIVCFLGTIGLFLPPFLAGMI
Sequence of rat α2β2 nAChR (P12390 25-500 limits assumed): as the sequence (P12390 25-500 limits assumed) above

rat α3β4 nAChR = rat α3β4 nAChR (Rattus norvegicus, UniProt P04757+P12392); assay type: cell-based
Sequence of rat α3β4 nAChR (P04757 26-499 limits assumed): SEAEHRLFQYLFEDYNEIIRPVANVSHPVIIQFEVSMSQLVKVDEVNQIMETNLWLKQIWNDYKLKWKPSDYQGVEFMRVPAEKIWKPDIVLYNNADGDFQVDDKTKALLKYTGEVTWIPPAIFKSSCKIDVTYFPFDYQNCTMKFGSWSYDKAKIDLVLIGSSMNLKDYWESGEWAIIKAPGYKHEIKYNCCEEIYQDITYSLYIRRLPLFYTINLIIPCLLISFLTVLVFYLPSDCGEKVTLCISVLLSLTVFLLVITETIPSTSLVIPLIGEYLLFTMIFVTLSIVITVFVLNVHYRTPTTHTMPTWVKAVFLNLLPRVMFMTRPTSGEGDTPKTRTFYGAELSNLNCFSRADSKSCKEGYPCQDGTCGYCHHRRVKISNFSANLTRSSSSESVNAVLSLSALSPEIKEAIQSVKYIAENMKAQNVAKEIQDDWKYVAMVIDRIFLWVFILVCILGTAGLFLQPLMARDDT
Sequence of rat α3β4 nAChR (P12392 21-495 limits assumed): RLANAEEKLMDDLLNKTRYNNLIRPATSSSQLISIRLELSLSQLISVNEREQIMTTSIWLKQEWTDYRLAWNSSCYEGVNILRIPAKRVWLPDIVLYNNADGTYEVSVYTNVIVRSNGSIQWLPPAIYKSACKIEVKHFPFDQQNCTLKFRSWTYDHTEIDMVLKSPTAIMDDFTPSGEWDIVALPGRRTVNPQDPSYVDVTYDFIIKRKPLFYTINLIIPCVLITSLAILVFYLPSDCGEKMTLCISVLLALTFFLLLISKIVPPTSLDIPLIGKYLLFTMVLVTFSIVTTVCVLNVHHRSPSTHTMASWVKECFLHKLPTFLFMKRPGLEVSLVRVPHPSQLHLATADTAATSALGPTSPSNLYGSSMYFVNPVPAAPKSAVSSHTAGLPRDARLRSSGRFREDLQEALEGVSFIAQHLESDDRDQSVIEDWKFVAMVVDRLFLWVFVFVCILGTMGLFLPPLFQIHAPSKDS

rat α2β4 nAChR = rat α2β4 nAChR (Rattus norvegicus, UniProt P12389+P12392); assay type: cell-based
Sequence of rat α2β4 nAChR (P12389 28-511 limits assumed): as the sequence (P12389 28-511 limits assumed) above
Sequence of rat α2β4 nAChR (P12392 21-495 limits assumed): as the sequence (P12392 21-495 limits assumed) above

human α9α10 nAChR = human α9α10 nAChR (Homo sapiens, UniProt Q9GZZ6+Q9UGM1); assay type: cell-based
Sequence of human α9α10 nAChR (Q9UGM1 26-479 limits assumed): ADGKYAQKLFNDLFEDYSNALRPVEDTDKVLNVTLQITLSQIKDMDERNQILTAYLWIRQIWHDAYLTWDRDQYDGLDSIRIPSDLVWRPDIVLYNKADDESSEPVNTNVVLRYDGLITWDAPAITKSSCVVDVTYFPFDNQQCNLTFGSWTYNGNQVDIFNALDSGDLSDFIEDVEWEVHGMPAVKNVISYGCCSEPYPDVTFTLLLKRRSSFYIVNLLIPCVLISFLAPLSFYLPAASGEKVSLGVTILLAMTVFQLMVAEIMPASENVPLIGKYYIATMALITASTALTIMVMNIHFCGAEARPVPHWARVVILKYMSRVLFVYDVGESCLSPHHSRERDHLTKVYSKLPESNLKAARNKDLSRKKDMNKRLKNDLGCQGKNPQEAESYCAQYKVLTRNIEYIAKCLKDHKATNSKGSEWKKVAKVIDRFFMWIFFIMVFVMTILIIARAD
Sequence of human α9α10 nAChR (Q9GZZ6 25-450 limits assumed): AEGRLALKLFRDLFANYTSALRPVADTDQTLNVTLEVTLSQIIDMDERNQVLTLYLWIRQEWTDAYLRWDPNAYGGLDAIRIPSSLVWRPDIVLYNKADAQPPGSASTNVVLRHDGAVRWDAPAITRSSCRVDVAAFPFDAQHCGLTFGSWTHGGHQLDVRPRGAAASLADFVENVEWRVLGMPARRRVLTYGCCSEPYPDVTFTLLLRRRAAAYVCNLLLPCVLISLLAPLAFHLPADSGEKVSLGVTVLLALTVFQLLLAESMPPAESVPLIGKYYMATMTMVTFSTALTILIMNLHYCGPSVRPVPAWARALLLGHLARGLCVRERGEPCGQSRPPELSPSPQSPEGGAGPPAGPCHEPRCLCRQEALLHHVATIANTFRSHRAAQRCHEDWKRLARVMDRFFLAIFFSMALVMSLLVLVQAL

rat α6/α3β2β3 nAChR = rat α6/α3β2β3 nAChR (Rattus norvegicus, UniProt P04757+P12390+P12391+P43143)

Sequence of rat α3β2 nAChR (P04757 26-499 limits assumed): as the sequence (P04757 26-499 limits assumed) above
Sequence of rat α3β2 nAChR (P12390 25-500 limits assumed): as the sequence (P12390 25-500 limits assumed) above
Sequence of rat α4β4 nAChR (P09483 31-630 limits assumed): as the sequence (P09483 31-630 limits assumed) above
Sequence of rat α4β4 nAChR (P12392 21-495 limits assumed): as the sequence (P12392 21-495 limits assumed) above
Sequence of rat α7 nAChR (Q05941 23-502 limits assumed): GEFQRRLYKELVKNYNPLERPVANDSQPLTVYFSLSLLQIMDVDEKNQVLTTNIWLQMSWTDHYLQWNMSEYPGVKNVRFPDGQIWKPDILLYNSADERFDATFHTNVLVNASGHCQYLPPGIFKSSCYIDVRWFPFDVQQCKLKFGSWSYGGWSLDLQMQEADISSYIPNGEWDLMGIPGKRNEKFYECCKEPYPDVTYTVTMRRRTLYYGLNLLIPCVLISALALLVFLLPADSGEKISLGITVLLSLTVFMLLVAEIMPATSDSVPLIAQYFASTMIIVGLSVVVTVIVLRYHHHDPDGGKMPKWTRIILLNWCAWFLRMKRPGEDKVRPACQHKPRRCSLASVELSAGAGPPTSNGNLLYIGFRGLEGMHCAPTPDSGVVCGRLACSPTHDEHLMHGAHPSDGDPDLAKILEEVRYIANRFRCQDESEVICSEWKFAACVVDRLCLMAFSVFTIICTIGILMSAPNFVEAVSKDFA

## CC(C)C[C@@H]1NC(=O)[C@H](CC(=O)O)NC(=O)[C@H](CO)NC(=O)[C@H](Cc2c[nH]cn2)NC(=O)[C@H](CCC(N)=O)NC(=O)[C@H](C(C)C)NC(=O)[C@H](CCC(N)=O)NC(=O)[C@@H]2CSSC[C@H](NC(=O)[C@@H](NC(=O)[C@H](CC(=O)O)NC(=O)[C@H](C)NC(=O)CNC(=O)[C@H](CO)NC(=O)[C@H](C)N)[C@@H](C)O)C(=O)N[C@@H](CSSC[C@@H](C(=O)O)NC1=O)C(=O)N[C@@H](CO)C(=O)N[C@@H](CC(N)=O)C(=O)N1CCC[C@H]1C(=O)N[C@@H](C)C(=O)N2 [CIC] (H-ASGADTCCSNPACQVQHSDLC-OH; disulfide 7-13, 8-21)
Rat α3β2 nAChR
  IC50: 3.51 µM
Rat α7 nAChR
  IC50: > 10 µM
Rat α4β4 nAChR
  IC50: > 10 µM
Rat α4β2 nAChR
  IC50: > 10 µM
Rat α2β2 nAChR
  IC50: > 10 µM
Rat α3β4 nAChR
  IC50: > 10 µM
Rat α2β4 nAChR
  IC50: > 10 µM
Human α9α10 nAChR
  IC50: > 10 µM
Rat α6/α3β2β3 nAChR
  IC50: 1.03 µM

— publication PMC8001506 (Marine Drugs, 2021)
